Results as given in ChEMBL document CHEMBL3875181, “Recent discovery of non-nucleobase thymidine phosphorylase inhibitors targeting cancer” (Eur J Med Chem, 2016).
One block for each compound: values may come before it.

Tests used:
Thymidine phosphorylase [1] = biological target: T1, Thymidine phosphorylase (Escherichia coli K-12, UniProt P07650); assay: Inhibition of Escherichia coli K12 thymidine phosphorylase expressed in Escherichia coli using thymidine as substrate addition measured up to 20 mins by Uv-vis spectrophotometric method
Thymidine phosphorylase [2] = biological target: T1, Thymidine phosphorylase; assay: Inhibition of Escherichia coli K12 thymidine phosphorylase expressed in Escherichia coli preincubated for 10 mins followed by substrate addition measured up to 30 mins by spectrophotometric method
Thymidine phosphorylase [3] = biological target: T2, Thymidine phosphorylase (Homo sapiens, UniProt P19971); assay: Inhibition of human thymidine phosphorylase using thymidine as substrate preincubated for 30 mins followed substrate addition measured up to 30 mins
T2 sequence (P19971 whole entry): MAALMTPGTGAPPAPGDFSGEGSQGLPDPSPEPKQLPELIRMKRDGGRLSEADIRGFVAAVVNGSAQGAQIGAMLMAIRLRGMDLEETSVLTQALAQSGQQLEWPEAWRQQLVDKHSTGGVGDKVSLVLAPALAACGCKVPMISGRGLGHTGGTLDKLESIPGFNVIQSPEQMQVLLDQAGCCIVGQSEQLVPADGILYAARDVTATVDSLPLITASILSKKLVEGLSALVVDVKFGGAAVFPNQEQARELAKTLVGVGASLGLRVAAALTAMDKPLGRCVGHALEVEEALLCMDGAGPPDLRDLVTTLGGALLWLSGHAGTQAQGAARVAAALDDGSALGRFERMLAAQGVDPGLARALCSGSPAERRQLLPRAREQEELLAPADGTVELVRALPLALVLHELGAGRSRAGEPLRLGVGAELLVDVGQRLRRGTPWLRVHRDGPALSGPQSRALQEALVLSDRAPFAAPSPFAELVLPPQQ

[4] = Non-competitive inhibition of Escherichia coli thymidine phosphorylase expressed in Escherichia coli preincubated for 10 mins followed by varying levels of thymidine substrate addition by Lineweaver-Burk plot analysis
[5] = Inhibition of Escherichia coli thymidine phosphorylase expressed in Escherichia coli preincubated for 10 mins followed by thymidine substrate addition measured for 10 mins by spectrophotometric method
[6] = biological target: Thymidine phosphorylase (Escherichia coli K-12) (UniProt P07650); assay: Potency index, ratio of 7-DX IC50 to compound IC50 for Escherichia coli K12 thymidine phosphorylase expressed in Escherichia coli
Thymidine phosphorylase (Escherichia coli K-12), sequence (P07650 whole entry, looked up): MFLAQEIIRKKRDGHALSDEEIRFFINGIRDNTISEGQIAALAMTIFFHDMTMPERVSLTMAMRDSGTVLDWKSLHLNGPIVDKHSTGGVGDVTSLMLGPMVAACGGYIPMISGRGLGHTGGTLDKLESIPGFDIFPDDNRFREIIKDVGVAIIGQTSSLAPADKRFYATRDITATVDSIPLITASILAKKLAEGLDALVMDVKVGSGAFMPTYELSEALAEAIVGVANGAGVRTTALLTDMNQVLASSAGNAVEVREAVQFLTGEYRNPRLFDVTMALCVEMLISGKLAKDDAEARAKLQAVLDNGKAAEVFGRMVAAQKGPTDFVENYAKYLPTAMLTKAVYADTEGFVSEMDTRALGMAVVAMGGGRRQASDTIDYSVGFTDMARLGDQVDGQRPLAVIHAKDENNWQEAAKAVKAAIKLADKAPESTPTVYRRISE

T1 sequence (P07650 whole entry): as the sequence (P07650 whole entry, looked up) above

Structure (SMILES): O=c1[nH]c(SCc2ccccc2)nc2nc(-c3ccccc3)nn12
IC50 (Thymidine phosphorylase [1]): 111 µM

Structure (SMILES): Oc1ccc(-c2nnc(S)o2)cc1
IC50 (Thymidine phosphorylase [2]): 38.2 µM

Structure (SMILES): O=C(OCc1cc(O)ccc1O[C@@H]1O[C@H](CO)[C@@H](O)[C@@H](OC(=O)c2ccc(O)cc2)[C@H]1O)c1ccccc1
IC50 (Thymidine phosphorylase [3]): 226 µM

Now from value to compound, other results behind:

IC50 [5]: 42.9 µM
Structure (SMILES): O=c1[nH]c(-c2ccc(O)c(O)c2)nc2ccccc12
Ki [4]: 52.3 µM

Ratio IC50 [6]: 12
IC50 (Thymidine phosphorylase [2]): 3.2 µM
Structure (SMILES): Oc1cc(O)c(/C=N/Nc2cnc3ccccc3n2)cc1O
